From PubChem BioAssay AID743417 (Broad Institute, 2014)
Results filed as inconclusive are left out. Active and inactive are the calls of the source.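 How the source made its calls: active means compounds lowering the luciferase signal with a fitted half-maximal dose at most twice their top valid dose (cut at about 30 µM in these data); inconclusive means flat fits with moderate signal loss, or poor fits; inactive means the rest.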

The molecules below were run on Clone20 osteoblast Shn3 3'UTR firefly luciferase, 24 h (assay: Schnurri-3 3'UTR-luciferase signal suppressors – cell-based, Clone20 osteoblasts, luminescence, dry powder, set 2, dose response (AID 743417)).

COc1ccc(CN2CCC(C(=O)Nc3ccc(Oc4cccnc4)cc3)CC2)c(C)c1C and CC1Sc2ccc(S(=O)(=O)N3CCC(C(=O)Nc4cccc(Cl)c4)CC3)cc2NC1=O (centres undefined) are within 1.5-fold of each other in AC50: 3.68 µM for the first, 3.27 µM for the second.

Going from Cc1nc2ccccc2n1Cc1ccc(Cl)cc1 to COc1cccc(-n2c(C)nc3c(cnn3-c3ccc(Cl)cc3)c2=O)c1, the AC50 falls from 1.46 µM to 0.391 µM (3.7-fold).

Compared with O=C(c1ccoc1)N1CCN(c2cc(-c3cccc(F)c3)nc3cc(-c4cccc(Cl)c4)nn23)CC1, CSc1ccc(CN(C)C(=O)c2cccc(S(=O)(=O)N3CCN(Cc4ccccc4)CC3)c2)cc1 is 3.4-fold lower in AC50: 9.78 µM for the first, 2.89 µM for the second.

COc1ccc(C(C(=O)NC2CCCCC2)N(C(=O)CCl)c2ccc(OC)cc2)cc1 (centres undefined) and COc1ccc(CNCCC(c2ccc(OC(C)C)cc2)c2ccccc2OC)cc1 (centres undefined) are within 1.5-fold of each other in AC50: 5.56 µM for the first, 3.86 µM for the second.

First: Cc1ccc(S(=O)(=O)N2CCN(c3ncnc4sccc34)CC2)cc1C
Second: CS(=O)(=O)N1CCN(c2ccc(NC(=O)c3ccc([N+](=O)[O-])o3)cc2)CC1
The AC50 of the first is 1.6-fold lower: 3.53 µM for the first, 5.65 µM for the second.

O=C1ON=C(c2ccccc2)/C1=C/c1ccc(-c2ccccc2[N+](=O)[O-])o1 and Cc1ccc(N2C(=O)c3cccc4c([N+](=O)[O-])ccc(c34)C2=O)c2cccnc12 are within 1.5-fold of each other in AC50: 7.21 µM for the first, 5.68 µM for the second.

First: CC(C)(C)C(=O)Cn1ncc(Br)c(Br)c1=O
Second: Cc1ccc(C(=O)OCn2ncc(Cl)c(Cl)c2=O)cc1
The AC50 of the first is 1.9-fold higher: 9.51 µM for the first, 5.07 µM for the second.

Going from C=C1C(=O)C23C(O)C1CCC2C12CCCC(C)(COC(C)=O)C1C(O)C3(O)OC2 (centres undefined) to CCOC(=O)N1CCC(NC(=O)C2CCCN(Cc3nc(-c4cccc(C)c4)oc3C)C2)CC1 (centres undefined), the AC50 rises from 0.771 µM to 3.06 µM (4-fold).

Compared with C=C1C(=O)O[C@@H]2C[C@@H](C)[C@@H]3C=CC(=O)[C@@]3(C)[C@@H](OC(=O)CC(=O)O[C@H]3[C@@H]4C(=C)C(=O)O[C@@H]4C[C@@H](C)[C@@H]4C=CC(=O)[C@]43C)[C@H]12, CC(Sc1nc2ccccc2c(=O)n1C)C(=O)Nc1ccc2c(c1)OCCO2 (centres undefined) is 6.6-fold higher in AC50: 0.292 µM for the first, 1.94 µM for the second.

Compared with OC(CNCCC1C=Nc2ccccc21)Cn1c2ccc(Cl)cc2c2cc(Cl)ccc21 (centres undefined), CCCS(=O)(=O)Nc1ccc(Nc2c3ccccc3nc3ccccc23)c(OC)c1 is 1.5-fold lower in AC50: 5.11 µM for the first, 3.39 µM for the second.

First: CCN(CC)CCn1c(=N)n(CC(O)COc2cccc(C)c2)c2ccccc21 (centres undefined)
Second: CCN(c1ccccc1)S(=O)(=O)c1ccc(Cl)c(NC(=O)CN(C)Cc2cccc(F)c2)c1
The AC50 of the first is 2-fold lower: 4.39 µM for the first, 8.78 µM for the second.

First: O=C(Nc1ccc2nc3n(c(=O)c2c1)CCCC3)c1cc([N+](=O)[O-])ccc1F
Second: Cc1cccc(NC(=O)/C=C/c2ccc([N+](=O)[O-])s2)c1
The AC50 of the first is 9.1-fold lower: 0.361 µM for the first, 3.29 µM for the second.

Compared with Cc1cc(Br)c(S(=O)(=O)NCc2ccncc2)cc1C, CCCCNc1cc(C)nc(NCc2ccccc2)n1 is 2-fold lower in AC50: 1.41 µM for the first, 0.719 µM for the second.

First: CCC1CN2CCc3cc(OC)c(OC)cc3C2CC1CC1NCCc2c1[nH]c1ccc(O)cc21 (centres undefined)
Second: COc1ccccc1-c1c(-c2ccc(O)cc2O)n[nH]c1C(F)(F)F
The AC50 of the first is lower: under 0.26 µM for the first, 0.708 µM for the second.

CCc1nnc(NC(=O)c2nc(S(=O)(=O)Cc3ccccc3)ncc2Cl)s1 and O=C(Cn1cc(C(=O)C2CC2)c2ccccc21)Nc1ccccc1Cl are within 1.5-fold of each other in AC50: 2.72 µM for the first, 3.42 µM for the second.

Cc1ccc(CNC(=O)c2ccc3c(=O)c(O)c(-c4ccc(C)cc4)[nH]c3c2)cc1 and CC(C)c1ccc(/C=C(\c2nc3ccccc3[nH]2)S(=O)(=O)c2ccccc2)cc1 are within 1.5-fold of each other in AC50: 2.82 µM for the first, 4.01 µM for the second.

First: OCCCNc1cc(-c2ccnc(Nc3cccc(Cl)c3)n2)ccn1
Second: Nc1nc(N)c(-c2cccc(C(F)(F)F)c2)c(Cc2cccc(C(F)(F)F)c2)n1
The AC50 of the first is lower: under 0.26 µM for the first, 3.6 µM for the second.

CC(Oc1ccc(F)cc1)C(=O)N(CCC1=CCCCC1)c1c(N)n(Cc2ccccc2)c(=O)[nH]c1=O (centres undefined) and COC(=O)C1=C(c2ccc(-c3ccccc3)c(F)c2)C[C@@H]2CC[C@H]1N2C(=O)N1CCCC1 are within 1.5-fold of each other in AC50: 7.99 µM for the first, 6.06 µM for the second.

Compared with CCOC(=O)C1CCCN(C(=O)Cn2sc3nc(C)cc(C)c3c2=O)C1 (centres undefined), COc1ccccc1-c1cc(C(F)(F)F)nc(S(=O)(=O)CCCC(=O)N2CCOCC2)n1 is 4.1-fold lower in AC50: 12.5 µM for the first, 3.02 µM for the second.

CCc1ccc(-n2c(O)c(C=NCCN(CC)CC)c(=O)[nH]c2=O)cc1 was tested, and the AC50 was > 70 µM (inactive).
